Where a SMILES comes first, the peptide text is derived from it. Bridges are numbered along the chain shown (N, C = ends). [ ]: non-standard residue; d: D form. The star is where a group is joined. Nicotinoyl(6-CF3) = O=C(c1ccc(C(F)(F)F)nc1)*; X6 = Cn1c(C(=O)*)cc2cc(Cl)ccc21; X24 = O=C(c1cccc(C(F)(F)F)n1)*; X23 = O=C(c1cc2ccccc2[nH]1)*; X27 = O=C(c1sc2ccccc2c1Cl)*; X1 = O=C(c1ncc(Cl)cc1Cl)*; X30 = O=C(c1ccc(Cl)cn1)*; Dab = NCC[C@H](N)C(=O)O; Abu = CC[C@H](N)C(=O)O; Dap = NC[C@H](N)C(=O)O
What was measured:
Type in all cases: cell-based
[1] = tested on: Acinetobacter baumannii FADDI-AB030; experiment: microbe, parasite or virus in culture; details: FADDI-AB030
Protocol: MICs of the lipopeptides (trifluoroacetic acid salt, TFA) were determined by broth microdilution in cation-adjusted Mueller-Hinton broth (CAMHB) (Oxoid Australia, Thebarton, SA, Australia) according to the Clinical and Laboratory Standards Institute protocol (Clinical and Laboratory Standards Institute, Performance standards for antimicrobial susceptibility testing; twentyforth informational supplement M100-S24. Wayne, Pa., 2014). Polymyxin B sulphate was employed as the control. […] The following isolates were examined: Pseudomonas aeruginosa ATCC 27853, Pseudomonas aeruginosa FADDI-PA022*, Pseudomonas aeruginosa FADDI-PA01*, Pseudomonas aeruginosa FADDI-PA038*, Acinetobacter baumannii FADDI-AB034*, Acinetobacter baumannii ATCC 17978, Acinetobacter baumannii FADDI-AB030*, Klebsiella pneumoniae FADDI-KP032, Klebsiella pneumoniae FADDI-KP022*, Klebsiella pneumoniae Kp BM1*, Enterobacter cloacae FADDI-EC006, Enterobacter cloacae FADDI-EC001, and Enterobacter cloacae FADDI-EC003 (* Multi drug-resistant clinical isolates, § New Delhi Metallo-beta-lactamase-1 (NDM-1) producing). The results are illustrated in Tables 4 and 5. […]

[2] = tested on: Enterobacter cloacae FADDI-EC001; details: FADDI-EC001
Protocol: (§1) MICs of the lipopeptides (trifluoroacetic acid salt, TFA) were determined by broth microdilution in cation-adjusted Mueller-Hinton broth (CAMHB) (Oxoid Australia, Thebarton, SA, Australia) according to the Clinical and Laboratory Standards Institute protocol (Clinical and Laboratory Standards Institute, Performance standards for antimicrobial susceptibility testing; twentyforth informational supplement M100-S24. Wayne, Pa., 2014). Polymyxin B sulphate was employed as the control. Antimicrobial activity of Compounds 1-104 against polymyxin-susceptible Gram-negative bacteria was examined. The following isolates were examined: Pseudomonas aeruginosa ATCC 27853, Pseudomonas aeruginosa FADDI-PA022*, Pseudomonas aeruginosa FADDI-PA01*, Pseudomonas aeruginosa FADDI-PA038*, Acinetobacter baumannii FADDI-AB034*, Acinetobacter baumannii ATCC 17978, Acinetobacter baumannii FADDI-AB030*, Klebsiella pneumoniae FADDI-KP032, Klebsiella pneumoniae FADDI-KP022*, Klebsiella pneumoniae Kp BM1*, Enterobacter cloacae FADDI-EC006, Enterobacter cloacae FADDI-EC001, and Enterobacter cloacae FADDI-EC003 (* Multi drug-resistant clinical isolates, § New Delhi Metallo-beta-lactamase-1 (NDM-1) producing). The results are illustrated in Tables 4 and 5.

[3] = tested on: Pseudomonas aeruginosa FADDI-PA038; details: FADDI-PA038
Protocol: as §1

[4] = tested on: Pseudomonas aeruginosa ATCC 27853; details: ATCC 27853
Protocol: as §1

[5] = tested on: Klebsiella pneumoniae FADDI-KP032; details: FADDI-KP032
Protocol: as §1

[6] = tested on: Klebsiella pneumoniae FADDI-KP022; details: FADDI-KP022
Protocol: as §1

[7] = tested on: Enterobacter cloacae FADDI-EC003; details: FADDI-EC003
Protocol: as §1

[8] = tested on: Acinetobacter baumannii ATCC 17978; details: ATCC 17978
Protocol: as §1

[9] = tested on: Pseudomonas aeruginosa FADDI-PA022; details: FADDI-PA022
Protocol: as §1

[10] = tested on: Enterobacter cloacae FADDI-EC006; details: FADDI-EC006
Protocol: as §1

[11] = tested on: Pseudomonas aeruginosa FADDI-PA01; details: FADDI-
Protocol: as §1

[12] = tested on: Acinetobacter baumannii FADDI-AB034; details: FADDI-AB034
Protocol: as §1

[13] = tested on: Klebsiella pneumoniae Kp BM1; details: Kp BM1
Protocol: as §1

Measured: Minimum inhibitory concentration

CC[C@@H]1NC(=O)[C@@H](CC(C)C)NC(=O)[C@H](CCN)NC(=O)[C@@H](NC(=O)[C@H](CN)NC(=O)[C@@H](NC(=O)[C@H](CCN)NC(=O)c2ccc(Cl)cn2)[C@@H](C)O)CCNC(=O)[C@H]([C@@H](C)O)NC(=O)[C@H](CCN)NC(=O)[C@H](CCN)NC1=O [Compound 37] (X30-[Dab]T[Dap][Dab][Dab][dL][Abu][Dab][Dab]T; lactam 4-C)
2 µg/mL: [8]
0.5 µg/mL: [1] | [3] | [10]
1 µg/mL: [12]
<0.125 µg/mL: [5] | [6] | [13]
0.25 µg/mL: all other assays above

CC[C@@H]1NC(=O)[C@@H](CC(C)C)NC(=O)[C@H](CCN)NC(=O)[C@@H](NC(=O)[C@H](CN)NC(=O)[C@@H](NC(=O)[C@H](CCN)NC(=O)c2cc3cc(Cl)ccc3n2C)[C@@H](C)O)CCNC(=O)[C@H]([C@@H](C)O)NC(=O)[C@H](CCN)NC(=O)[C@H](CCN)NC1=O [Compound 58] (X6-[Dab]T[Dap][Dab][Dab][dL][Abu][Dab][Dab]T; lactam 4-C)
1 µg/mL: [2]
<0.125 µg/mL: [6] | [7]
2 µg/mL: [3]
0.25 µg/mL: [1] | [8] | [13]
0.5 µg/mL: all other assays above

CC[C@@H]1NC(=O)[C@@H](CC(C)C)NC(=O)[C@H](CCN)NC(=O)[C@@H](NC(=O)[C@H](CN)NC(=O)[C@@H](NC(=O)[C@H](CCN)NC(=O)c2ccc(C(F)(F)F)nc2)[C@@H](C)O)CCNC(=O)[C@H]([C@@H](C)O)NC(=O)[C@H](CCN)NC(=O)[C@H](CCN)NC1=O [Compound 3] ({Nicotinoyl(6-CF3)}-[Dab]T[Dap][Dab][Dab][dL][Abu][Dab][Dab]T; lactam 4-C)
0.5 µg/mL: [2] | [4] | [11]
<0.125 µg/mL: [6]
0.25 µg/mL: [5] | [7]
1 µg/mL: all other assays above

CC[C@@H]1NC(=O)[C@@H](CC(C)C)NC(=O)[C@H](CCN)NC(=O)[C@@H](NC(=O)[C@H](CN)NC(=O)[C@@H](NC(=O)[C@H](CCN)NC(=O)c2sc3ccccc3c2Cl)[C@@H](C)O)CCNC(=O)[C@H]([C@@H](C)O)NC(=O)[C@H](CCN)NC(=O)[C@H](CCN)NC1=O [Compound 61] (X27-[Dab]T[Dap][Dab][Dab][dL][Abu][Dab][Dab]T; lactam 4-C)
0.25 µg/mL: [2] | [3] | [4] | [9] | [13]
<0.125 µg/mL: all other assays above

CC(C)C[C@H]1NC(=O)[C@H](CCN)NC(=O)[C@@H](NC(=O)[C@H](CN)NC(=O)[C@@H](NC(=O)[C@H](CCN)NC(=O)c2ncc(Cl)cc2Cl)[C@@H](C)O)CCNC(=O)[C@H]([C@@H](C)O)NC(=O)[C@H](CCN)NC(=O)[C@H](CCN)NC(=O)[C@H](C)NC1=O [Compound 10] (X1-[Dab]T[Dap][Dab][Dab][dL]A[Dab][Dab]T; lactam 4-C)
8 µg/mL: [1]
0.25 µg/mL: [2] | [4] | [6] | [7]
1 µg/mL: [3]
4 µg/mL: [8] | [12] | [13]
0.5 µg/mL: all other assays above

CC(C)C[C@H]1NC(=O)[C@H](CCN)NC(=O)[C@@H](NC(=O)[C@H](CN)NC(=O)[C@@H](NC(=O)[C@H](CCN)NC(=O)c2cc3ccccc3[nH]2)[C@@H](C)O)CCNC(=O)[C@H]([C@@H](C)O)NC(=O)[C@H](CCN)NC(=O)[C@H](CCN)NC(=O)[C@H](C)NC1=O [Compound 67] (X23-[Dab]T[Dap][Dab][Dab][dL]A[Dab][Dab]T; lactam 4-C)
2 µg/mL: [8]
1 µg/mL: [1] | [3] | [10] | [12]
0.25 µg/mL: [4] | [9]
0.5 µg/mL: all other assays above

CC[C@@H]1NC(=O)[C@@H](CC(C)C)NC(=O)[C@H](CCN)NC(=O)[C@@H](NC(=O)[C@H](CN)NC(=O)[C@@H](NC(=O)[C@H](CCN)NC(=O)c2cccc(C(F)(F)F)n2)[C@@H](C)O)CCNC(=O)[C@H]([C@@H](C)O)NC(=O)[C@H](CCN)NC(=O)[C@H](CCN)NC1=O [Compound 44] (X24-[Dab]T[Dap][Dab][Dab][dL][Abu][Dab][Dab]T; lactam 4-C)
0.25 µg/mL: [9]
2 µg/mL: [8] | [12]
0.5 µg/mL: [3] | [10]
1 µg/mL: [1]
<0.125 µg/mL: all other assays above

Source: patent US11225505B2, “Antimicrobial polymyxin derivative compounds” (MONASH UNIVERSITY, priority 2015, dated 2022)
